Data taken from ChEMBL document CHEMBL1132338, “Molecular recognition in nicotinic acetylcholine receptors: the importance of pi-cation interactions” (J Med Chem, 1999).
pKi: −log10 of the molar value.

Legend:
[1] = molecular target: Neuronal acetylcholine receptor subunit alpha-7 (Homo sapiens, UniProt P36544); assay: Binding affinity at homopentameric Nicotinic acetylcholine receptor alpha-7 subtype using [3H]-alpha-bungarotoxin as radioligand
[2] = molecular target: Neuronal acetylcholine receptor; alpha4/beta2 (Homo sapiens, UniProt P17787+P43681); assay: Binding affinity at heteropentameric Nicotinic acetylcholine receptor alpha4-beta2 subtype using […] as radioligand; assay type: protein-complex assay
Chain of Neuronal acetylcholine receptor; alpha4/beta2 (P17787 whole entry): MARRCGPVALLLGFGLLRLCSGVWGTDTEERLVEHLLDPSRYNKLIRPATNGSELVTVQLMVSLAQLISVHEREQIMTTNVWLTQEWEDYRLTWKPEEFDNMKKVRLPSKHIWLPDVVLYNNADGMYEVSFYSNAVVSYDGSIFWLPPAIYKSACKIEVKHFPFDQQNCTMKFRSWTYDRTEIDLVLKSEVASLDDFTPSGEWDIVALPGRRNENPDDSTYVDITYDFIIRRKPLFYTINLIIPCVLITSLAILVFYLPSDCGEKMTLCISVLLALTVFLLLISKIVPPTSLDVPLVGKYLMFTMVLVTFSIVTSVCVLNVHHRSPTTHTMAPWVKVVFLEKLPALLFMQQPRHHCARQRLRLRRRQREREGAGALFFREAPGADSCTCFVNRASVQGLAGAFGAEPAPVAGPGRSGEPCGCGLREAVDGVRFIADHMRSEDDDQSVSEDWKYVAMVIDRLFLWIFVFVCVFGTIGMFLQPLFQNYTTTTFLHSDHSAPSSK
Chain of Neuronal acetylcholine receptor; alpha4/beta2 (P43681 whole entry): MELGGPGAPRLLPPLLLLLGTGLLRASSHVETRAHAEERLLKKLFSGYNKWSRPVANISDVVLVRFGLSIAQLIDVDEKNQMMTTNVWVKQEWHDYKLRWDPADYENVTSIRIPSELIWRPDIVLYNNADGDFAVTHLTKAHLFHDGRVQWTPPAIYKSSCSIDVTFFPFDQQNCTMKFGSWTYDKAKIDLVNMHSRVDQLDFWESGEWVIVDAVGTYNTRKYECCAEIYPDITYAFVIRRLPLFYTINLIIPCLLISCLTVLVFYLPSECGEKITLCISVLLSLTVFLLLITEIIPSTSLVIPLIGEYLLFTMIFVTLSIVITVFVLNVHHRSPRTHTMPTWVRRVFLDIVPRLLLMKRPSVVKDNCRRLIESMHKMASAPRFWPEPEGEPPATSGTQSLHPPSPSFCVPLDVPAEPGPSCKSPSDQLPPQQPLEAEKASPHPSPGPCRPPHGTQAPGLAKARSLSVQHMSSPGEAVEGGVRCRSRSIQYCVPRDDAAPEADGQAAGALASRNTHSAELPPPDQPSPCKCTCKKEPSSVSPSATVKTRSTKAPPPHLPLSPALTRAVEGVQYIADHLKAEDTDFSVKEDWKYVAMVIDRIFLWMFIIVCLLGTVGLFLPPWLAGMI

Chain of Neuronal acetylcholine receptor subunit alpha-7 (P36544 whole entry): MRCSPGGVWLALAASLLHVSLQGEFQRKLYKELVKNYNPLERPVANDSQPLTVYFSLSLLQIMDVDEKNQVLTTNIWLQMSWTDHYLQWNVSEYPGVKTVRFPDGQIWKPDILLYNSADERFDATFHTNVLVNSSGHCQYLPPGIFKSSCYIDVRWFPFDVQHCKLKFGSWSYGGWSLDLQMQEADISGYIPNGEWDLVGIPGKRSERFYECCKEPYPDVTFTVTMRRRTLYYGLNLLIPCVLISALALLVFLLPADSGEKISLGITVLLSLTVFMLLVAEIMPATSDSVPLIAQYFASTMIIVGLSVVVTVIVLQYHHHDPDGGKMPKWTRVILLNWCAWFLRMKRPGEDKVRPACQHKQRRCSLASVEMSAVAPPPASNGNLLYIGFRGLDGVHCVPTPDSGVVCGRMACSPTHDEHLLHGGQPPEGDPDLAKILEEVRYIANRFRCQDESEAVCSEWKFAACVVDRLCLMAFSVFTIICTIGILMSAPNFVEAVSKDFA

## c1cncc([C@@H]2CCCN2)c1 [NORNICOTINE]
[1]
  pKi: 6.14

## c1cncc(C2CCCCN2)c1 (stereo not drawn) [DL-ANABASINE]
[2]
  pKi: 7.04
[1]
  pKi: 6.35

## Clc1ccc(C2CC3CCC2N3)cn1 (stereo not given) [EPIBATIDINE]
[1]
  pKi: 7.60

## CN1CCCCC1c1cccnc1 (stereo not given)
[2]
  pKi: 6.35
[1]
  pKi: 5.01

## c1cncc(C2CCN2)c1 (stereo not given)
[2]
  pKi: 8.96

## C[N+](C)(C)C [TETRAMETHYLAMMONIUM ION]
[2]
  pKi: 7.62
[1]
  pKi: 5.64

## CN1C2CCC1C(c1ccc(Cl)nc1)C2 (stereo not given)
[2]
  pKi: 9.59
